What all share (assay type): cell-based
One assay deals with T1, wild type Bcr-abl (Homo sapiens, UniProt P00519).
T1 construct: expressed in transfected cells; host or cells: Ba/F3 murine pro-B cells; the other entry of the earlier key: BCR (P11274, Breakpoint cluster region protein)
Kind of assay: Proliferation of Ba/F3 cells expressing wild type Bcr-abl. As for the experimental part: The murine cell line used is the Ba/F3 murine pro-B cell line transformed with BCR-Abl cDNA (Ba/F3-p210). These cells are maintained in RPMI/10% fetal calf serum (RPMI/FCS) supplemented with penicillin 50 μg/mL, streptomycin 50 μg/mL and L-glutamine 200 mM. Untransformed Ba/F3 Ba/F3 cells are similarly maintained with the addition of murine recombinant IL3.
(§1) Ba/F3-p210 cells are plated into 96 well TC plates at a density of 15,000 cells per well. 50 μL of two fold serial dilutions of the test compound (Cmax, is […]) are added to each well (STI571 is included as a positive control). After incubating the cells for 48 hours at 37° C., 5% CO2, 15 μL of MTT (Promega) is added to each well and the cells are incubated for an additional 5 hours. The optical density at 570 nm is quantified spectrophotometrically and IC50 values, the concentration of compound required for 50% inhibition, determined from a dose response curve.
Compounds of the invention are tested for their antiproliferative effect on Ba/F3 cells expressing either wild type or the mutant forms of BCR-Abl (G250E, E255V, T315I, F317L, M351T) that confers resistance or diminished sensitivity to STI571. […] The IC50 values of the compounds lacking toxicity on the untransformed cells were determined from the dose response curves obtained as describe above.

The next assay has as its target T2, T315I Bcr-abl (Homo sapiens, UniProt P00519, T315I).
T2 construct: expressed in transfected cells; host or cells: Ba/F3 murine pro-B cells; the other entry of the earlier key: BCR (P11274, Breakpoint cluster region protein)
Description: Proliferation of Ba/F3 cells expressing mutant Bcr-abl T315I. As for the experimental part: as §1
(§2) Compounds of the invention are tested for their antiproliferative effect on Ba/F3 cells expressing either wild type or the mutant forms of BCR-Abl (G250E, E255V, T315I, F317L, M351T) that confers resistance or diminished sensitivity to STI571. The antiproliferative effect of these compounds on the mutant-BCR-Abl expressing cells and on the non transformed cells were tested as described above. The IC50 values of the compounds lacking toxicity on the untransformed cells were determined from the dose response curves obtained as describe above.

A further assay deals with T3, G250E Bcr-abl (Homo sapiens, UniProt P00519, G250E).
T3 construct: expressed in transfected cells; host or cells: Ba/F3 murine pro-B cells; the other entry of the earlier key: BCR (P11274, Breakpoint cluster region protein)
Kind of assay: Proliferation of Ba/F3 cells expressing mutant Bcr-abl G250E. As for the experimental part: as §1, §2

The target in another assay is T4, E255V Bcr-abl (Homo sapiens, UniProt P00519, E255V).
T4 construct: expressed in transfected cells; host or cells: Ba/F3 murine pro-B cells; the other entry of the earlier key: BCR (P11274, Breakpoint cluster region protein)
T4 sequence (P00519 229-512 E255V limits assumed): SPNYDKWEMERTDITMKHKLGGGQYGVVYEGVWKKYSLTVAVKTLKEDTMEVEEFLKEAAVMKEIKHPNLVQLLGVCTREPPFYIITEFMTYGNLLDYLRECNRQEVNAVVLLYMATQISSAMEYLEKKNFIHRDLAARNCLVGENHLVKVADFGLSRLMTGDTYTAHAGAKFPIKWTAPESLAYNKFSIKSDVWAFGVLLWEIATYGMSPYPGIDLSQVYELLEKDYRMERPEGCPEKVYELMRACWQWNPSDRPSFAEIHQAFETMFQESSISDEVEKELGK
Description: Proliferation of Ba/F3 cells expressing mutant Bcr-abl E255V. The protocol:
as §1, §2

In a further assay the target is T5, F317L Bcr-abl (Homo sapiens, UniProt P00519, F317L).
T5 construct: expressed in transfected cells; host or cells: Ba/F3 murine pro-B cells; the other entry of the earlier key: BCR (P11274, Breakpoint cluster region protein)
Description: Proliferation of Ba/F3 cells expressing mutant Bcr-abl F317L. The protocol: as §1, §2

Another assay deals with T6, M351T Bcr-abl (Homo sapiens, UniProt P00519, M351T).
T6 construct: expressed in transfected cells; host or cells: Ba/F3 murine pro-B cells; the other entry of the earlier key: BCR (P11274, Breakpoint cluster region protein)
Description: Proliferation of Ba/F3 cells expressing mutant Bcr-abl M351T. As for the experimental part: as §1, §2

The target of the next assay is T7, PDGFRβ (Homo sapiens, UniProt P09619).
T7 construct: fused on or other part: P41212 (Transcription factor ETV6)
Description: PDGFRβ (Cellular Assay), Ba/F3-Tel-PDGFRβ proliferation. The settings on record: read-out: IC50 for PDGFRβ.

The target in another assay is T8, Flt-3 (Homo sapiens, UniProt P36888, cells depend on it, form not given).
T8 sequence (P36888 1-993): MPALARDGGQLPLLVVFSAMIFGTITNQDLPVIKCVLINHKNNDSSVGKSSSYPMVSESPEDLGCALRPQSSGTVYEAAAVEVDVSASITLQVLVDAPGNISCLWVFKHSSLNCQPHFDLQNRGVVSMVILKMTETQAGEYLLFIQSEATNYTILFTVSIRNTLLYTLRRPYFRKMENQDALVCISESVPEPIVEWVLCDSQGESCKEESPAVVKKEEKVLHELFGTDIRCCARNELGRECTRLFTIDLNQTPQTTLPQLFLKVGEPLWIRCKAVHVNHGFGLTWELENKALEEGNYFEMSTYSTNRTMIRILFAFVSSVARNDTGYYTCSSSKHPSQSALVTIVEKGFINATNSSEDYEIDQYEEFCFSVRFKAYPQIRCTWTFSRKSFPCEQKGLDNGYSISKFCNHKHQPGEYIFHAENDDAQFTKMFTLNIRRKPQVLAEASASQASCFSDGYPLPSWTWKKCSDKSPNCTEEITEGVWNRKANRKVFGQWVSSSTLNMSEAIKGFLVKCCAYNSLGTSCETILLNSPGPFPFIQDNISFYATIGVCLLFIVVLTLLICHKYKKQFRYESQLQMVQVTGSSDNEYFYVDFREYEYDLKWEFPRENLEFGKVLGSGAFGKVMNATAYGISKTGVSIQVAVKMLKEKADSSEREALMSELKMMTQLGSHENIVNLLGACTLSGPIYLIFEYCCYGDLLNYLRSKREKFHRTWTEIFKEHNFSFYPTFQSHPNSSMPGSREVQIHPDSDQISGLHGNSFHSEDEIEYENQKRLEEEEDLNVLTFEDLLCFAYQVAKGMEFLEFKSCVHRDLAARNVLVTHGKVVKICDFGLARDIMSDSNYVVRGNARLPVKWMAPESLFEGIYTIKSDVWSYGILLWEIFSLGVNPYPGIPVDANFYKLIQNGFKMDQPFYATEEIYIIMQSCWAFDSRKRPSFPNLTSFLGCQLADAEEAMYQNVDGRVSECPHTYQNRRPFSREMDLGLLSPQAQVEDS
Description: FLT3 (Cellular Assay), Ba/F3-FLT3-ITD proliferation. The settings on record: read-out: IC50 for Flt-3.

This is an account of results in patent publication US20090105250A1, “COMPOUNDS AND COMPOSITIONS AS PROTEIN KINASE INHIBITORS” (IRM LLC, priority 2005, published 2009).

SMILES strings stand for the structures.

T7 sequence (P09619 600-962 limits assumed, change not shown): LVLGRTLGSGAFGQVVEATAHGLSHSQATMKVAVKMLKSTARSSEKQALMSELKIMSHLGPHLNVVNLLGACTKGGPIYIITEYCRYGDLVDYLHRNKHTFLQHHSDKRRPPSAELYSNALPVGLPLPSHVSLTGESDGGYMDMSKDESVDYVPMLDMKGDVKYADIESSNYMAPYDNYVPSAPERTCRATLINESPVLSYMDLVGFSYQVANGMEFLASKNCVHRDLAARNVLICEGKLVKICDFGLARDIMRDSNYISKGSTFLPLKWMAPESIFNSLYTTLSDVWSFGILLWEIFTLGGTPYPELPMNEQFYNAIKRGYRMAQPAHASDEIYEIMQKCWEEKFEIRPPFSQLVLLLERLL

One may read the IC50 as the point on the concentration scale where inhibition reaches its midpoint. The low end stands for inhibition by little substance, the high end for a need for much substance. Take `CCN1CCN(c2cc(Nc3ncc(C(=O)Nc4cc(NC(=O)c5cc(-n6cnc(C)c6)cc(C(F)(F)F)c5)ccc4C)s3)nc(C)n2)CC1` [Example 29, 2-[6-(4-ethyl-piperazin-1-yl)-2-methyl-pyrimidin-4-ylamino]-thiazole-5-carboxylic acid {2-methyl-5-[3-(4-methyl-imidazol-1-yl)-5-trifluoromethyl-benzoylamino]-phenyl}-amide]: the IC50 against wild type Bcr-abl was determined as 8 nM; against T315I Bcr-abl, 570 nM.

Consider `CCN1CCN(c2cc(Nc3ncc(C(=O)Nc4cc(NC(=O)c5cccc(C(F)(F)F)c5)ccc4C)s3)nc(C)n2)CC1` [Example 8, 2-[6-(4-ethyl-piperazin-1-yl)-2-methyl-pyrimidin-4-ylamino]-thiazole-5-carboxylic acid [2-methyl-5-(3-trifluoromethyl-benzoylamino)-phenyl]-amide], for which the IC50 on wild type Bcr-abl is 5 nM; at G250E Bcr-abl it was 2290 nM; against E255V Bcr-abl, 12 nM; on T315I Bcr-abl, 1270 nM; on F317L Bcr-abl, 5 nM; on M351T Bcr-abl, 5 nM.

Take `Cc1cn(-c2cc(C(=O)Nc3ccc(C)c(NC(=O)c4cnc(Nc5cc(N6CCOCC6)nc(C)n5)s4)c3)cc(C(F)(F)F)c2)cn1` [Example 28, 2-(2-methyl-6-morpholin-4-yl-pyrimidin-4-ylamino)-thiazole-5-carboxylic acid {2-methyl-5-[3-(4-methyl-imidazol-1-yl)-5-trifluoromethyl-benzoylamino]-phenyl}-amide]: the GI50 on PDGFRβ is 5 nM.

`Cc1cn(-c2cc(C(=O)Nc3ccc(C)c(NC(=O)c4cnc(NCCO)s4)c3)cc(C(F)(F)F)c2)cn1` [Compound 5, 2-(2-Hydroxy-ethylamino)-thiazole-5-carboxylic acid {2-methyl-5-[3-(4-methyl-imidazol-1-yl)-5-trifluoromethyl-benzoylamino]-phenyl}-amide]: the GI50 on Flt-3 was determined as 41 nM.
